From paper PMC10302753, “Natural-Product-Inspired Microwave-Assisted Synthesis of Novel Spirooxindoles as Antileishmanial Agents: Synthesis, Stereochemical Assignment, Bioevaluation, SAR, and Molecular Docking Studies” (Molecules, 2023)
Entries after “also recorded” stand apart in the source; their conditions may differ. Where two headings read alike, the source gives them in different places.

Tests used:
[1] = target: Leishmania DNA topoisomerase type IB (purified recombinant LTopIB) (Leishmania donovani, UniProt A0A3Q8IHS4+Q8WQM6); experiment: Plasmid relaxation assay (relaxation of supercoiled plasmid DNA); assay type: biochemical; settings: for LTopIB inhibition, result in words: recombinant enzyme in vitro, initial test at 100 µM, then dose/response
Experimental: The relaxation of supercoiled plasmid DNA is the method used for the determination of LTopIB activity. Various doses of each compound were treated with one unit of pure LTopIB (the enzyme to relax 0.5 µg of supercoiled DNA for 30 min at 37 °C) for 20 min at 4 °C. The reaction mixture, including 0.5 μg of supercoiled pBluescript SK(−) plasmid, 10 mM Tris-HCl buffer pH 7.5, 5 mM MgCl2, 0.1 mM EDTA, 15 µg/mL of bovine serum albumin, and 150 mM KCl, was then added in a final volume of 20 μL. After 30 min at 37 °C, the reaction mixtures were stopped by adding 4 μL of loading buffer, which included 5% sarkosyl, 0.12% bromophenol blue, and 25% glycerol. By electrophoresis, the topoisomers were separated on 1% agarose gels and electrophoresed at 2 V/cm for 16 h in a 0.1 M Tris-borate-EDTA buffer (pH 8.0) after being stained with ethidium bromide (0.5 µg/mL). Plotting the percentage of supercoiled DNA versus drug concentrations allowed researchers to determine the 50% inhibition concentration (IC50) values of LTopIB inhibition as the 50% reduction of supercoiled DNA [72].
Because of the presence of spirooxindole systems in the structure of these compounds, we aimed to assess their inhibitory potential on purified recombinant LTopIB measuring the relaxation of supercoiled plasmid DNA. In this regard, all spirooxindole derivatives were assessed for LTopIB inhibition through the prevention of DNA relaxation in a circular DNA plasmid. […] After this initial test, potential inhibitor dose/response curves were performed to obtain their IC50 values. […]
The relaxation of supercoiled plasmid DNA is the method used for the determination of LTopIB activity.
Various doses of each compound were treated with one unit of pure LTopIB (the enzyme to relax 0.5 µg of supercoiled DNA for 30 min at 37 °C) for 20 min at 4 °C. The reaction mixture including 0.5 μg of supercoiled pBluescript SK(−) plasmid, 10 mM Tris-HCl buffer pH 7.5, 5 mM MgCl2, 0.1 mM EDTA, 15 µg/mL bovine serum albumin, and 150 mM KCl was then added in a final volume of 20 μL. After 30 minutes at 37 °C, the reaction mixtures were stopped by adding 4 μL of loading buffer, which included 5% sarkosyl, 0.12% bromophenol blue, and 25% glycerol. By electrophoresis, the topoisomers were separated in 1% agarose gels were electrophoresed at 2 V/cm for 16 hours in a 0.1 M Tris-borate-EDTA buffer (pH 8.0) after being stained with ethidium bromide (0.5 µg/mL). Plotting the percentage of supercoiled DNA versus drug concentrations allowed researchers to determine the 50% inhibition concentration (IC50) values of LTopIB inhibition as the 50% reduction of supercoiled DNA. […]

[2] = system: promastigotes of Leishmania donovani (MHOM/IN/1983/AG83); experiment: In vitro antileishmanial activity, Trypan blue dye exclusion method; assay type: cell-based; settings: 72 h, L. donovani promastigotes, 22 ± 1 °C, 50% growth inhibition, read-out: IC50 Using Trypan Blue Dye Exclusion Method
Experimental: The compounds (23a–f, 24a–f, and 25a–g) were initially screened for their in vitro antileishmanial activity against promastigotes of Leishmania donovani (MHOM/IN/1983/AG83) utilizing the Trypan blue dye exclusion method and the plasmid relaxation assay using amphotericin B and camphothesin as standard reference drugs, respectively.
The promastigotes were harvested from the culture vials, counted, and 2 × 10^6 cells/well were seeded in a 48-well culture plate. The antileishmanial screening of all the derivatives, 23a–f, 24a–f, and 25a–g, as well as the positive control, was performed at various concentrations (2 μg/mL, 4 μg/mL, 8 μg/mL, and 16 μg/mL) added in triplicate. The plate was incubated at 22 ± 1 °C in the BOD incubator for 72 h. After 72 h, each well was counted for the number of viable parasites using the Trypan blue dye exclusion method, and the percentage growth inhibition was calculated by using the formula: Percentage viability=No. of viable cells in treated well/No. of viable cells in blank well×100 Percentage growth inhibition = 100 − percentage viability […]
The IC50 (inhibitory concentration at which 50% of the parasites were dead) value was obtained by plotting a linear dose–response curve in SPSS software (Version 23). […]
Parasite strain and culture conditions:
The SSG-sensitive Indian strain of Leishmania donovani (MHOM/IN/1983/AG83) obtained from CSIR-IICB, Kolkata, was used for the study. The promastigotes of these strains were maintained in Medium 199+10% FCS (Foetal Calf Serum) by serial sub-culturing at an ambient temperature of 22±1°C every 72 […]
In vitro antileishmanial activity
Trypan blue dye exclusion method
For carrying out the antileishmanial activity in vitro, promastigotes of Leishmania donovani were used.
The promastigotes were harvested from the culture vials, counted, and 2 × 10^6 cells/well were seeded in a 48-well culture plate. Further, compounds at various concentrations (2 μg/mL, 4 μg/mL, 8 μg/mL and 16 μg/mL) were added in triplets. No drug was added to the well serving as a blank, and amphotericin B was added to the well serving as the positive control. The plate was incubated at 22 ± 1°C in the BOD incubator for 72 hours. After 72 hours, each well was counted for the number of viable parasites using the trypan blue dye exclusion method, and the percentage growth inhibition was calculated by using the formula:
Percentage growth inhibition = 100 – percentage viability
IC50 (inhibitory concentration at which 50% of the parasites were dead) was obtained by plotting a linear dose-response curve in SPSS software (Version 23). […]
8.0) after being stained with ethidium bromide (0.5 µg/mL). Plotting the percentage of supercoiled DNA versus drug concentrations allowed researchers to determine the 50% inhibition concentration (IC50) values of LTopIB inhibition as the 50% reduction of supercoiled DNA.
Characterization data of spirooxindole derivatives (23a-f, 24a-f, 25a-g).
(1'S,2'R,3S,7a'S)-1'-(4-chlorophenyl)-2'-(4-fluorobenzoyl)-5-methyl-1',2',5',6',7',7a'-hexahydrospiro [indoline-3,3'-pyrrolizin]-2-one (23a): The product was synthesized utilizing the microwave-irradiated approach, and purified by column chromatography over silica gel using hexane/EtOAc (8:2) as an eluent; Physical Appearance: light yellow solid; Yield: 98%; Rf (EtOAc/hexane: 1:1) = 0.48; m.p. 182-184 °C; […]
(1'S,2'R,3S,7a'S)-5-fluoro-2'-(4-fluorobenzoyl)-1'-(4-methoxyphenyl)-1',2',5',6',7',7a'-hexahydro spiro[indoline-3,3'-pyrrolizin]-2-one (23b): The product was synthesized utilizing the microwave-irradiated approach, and purified by column chromatography over silica gel using hexane/EtOAc (7:3) as an eluent; Physical Appearance: light yellow solid; Yield: 66%; Rf (EtOAc/hexane: 1:1) = 0.45; m.p. 161-

[3] = LTopIB inhibition, 50% reduction of supercoiled DNA, read-out: IC50 Using Plasmid Relaxation Assay

Leishmania DNA topoisomerase type IB (purified recombinant LTopIB), sequence (Q8WQM6 entry or part of it): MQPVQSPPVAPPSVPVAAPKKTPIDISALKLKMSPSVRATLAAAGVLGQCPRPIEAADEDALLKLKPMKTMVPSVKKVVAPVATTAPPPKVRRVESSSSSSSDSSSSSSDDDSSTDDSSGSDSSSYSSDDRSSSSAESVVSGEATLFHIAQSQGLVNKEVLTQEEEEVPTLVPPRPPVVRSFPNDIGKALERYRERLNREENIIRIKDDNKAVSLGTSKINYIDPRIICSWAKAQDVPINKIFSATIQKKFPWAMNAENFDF
Leishmania DNA topoisomerase type IB (purified recombinant LTopIB), sequence (A0A3Q8IHS4 entry or part of it): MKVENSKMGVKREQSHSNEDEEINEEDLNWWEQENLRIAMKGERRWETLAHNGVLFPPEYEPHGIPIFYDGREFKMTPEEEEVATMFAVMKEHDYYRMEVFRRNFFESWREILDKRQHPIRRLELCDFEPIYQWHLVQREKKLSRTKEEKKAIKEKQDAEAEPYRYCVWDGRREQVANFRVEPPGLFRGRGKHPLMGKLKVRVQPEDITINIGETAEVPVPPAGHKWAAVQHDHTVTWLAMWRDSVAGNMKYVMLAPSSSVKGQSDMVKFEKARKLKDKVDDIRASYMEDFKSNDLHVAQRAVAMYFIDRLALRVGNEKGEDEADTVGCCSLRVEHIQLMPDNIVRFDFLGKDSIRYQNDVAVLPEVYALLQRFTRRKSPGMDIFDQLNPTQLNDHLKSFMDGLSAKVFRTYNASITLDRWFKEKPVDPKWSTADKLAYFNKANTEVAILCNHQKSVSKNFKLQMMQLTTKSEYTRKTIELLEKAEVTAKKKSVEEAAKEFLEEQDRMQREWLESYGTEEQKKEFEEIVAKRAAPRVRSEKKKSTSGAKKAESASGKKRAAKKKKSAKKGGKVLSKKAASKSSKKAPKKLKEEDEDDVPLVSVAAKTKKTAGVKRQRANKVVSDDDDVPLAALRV

Row | SMILES | IC50 [1, 3] [µM] | melting point [°C] | IC50 ([2]; Leishmania donovani) [µM] | IC50 [2] [µM] | LTopIB inhibition, result in words [1] | IC50 [1] [µM]
1 | COc1ccc([C@@H]2[C@@H](C(=O)c3ccc(F)cc3)[C@]3(C(=O)Nc4ccc(F)cc43)N3CCC[C@@H]23)cc1 [23b, (1'S,2'R,3S,7a'S)-5-fluoro-2'-(4-fluorobenzoyl)-1'-(4-methoxyphenyl)-1',2',5',6',7',7a'-hexahydrospiro[indoline-3,3'-pyrrolizin]-2-one] | > 100 | 161 to 163 | > 20 |  |  | 
2 | COc1ccc(C2C3CCCN3C3(C(=O)Nc4ccc(F)cc43)C2C(=O)c2ccc(Br)cc2)cc1 (stereo not shown) [23c] | > 100 | 126 to 128 | > 20 |  |  | 
3 | COc1ccc(C2C3CCCN3C3(C(=O)Nc4ccc(OC)cc43)C2C(=O)c2ccc(Br)cc2)cc1 (stereo not shown) [23d] | 53.6 | 107 to 109 | ≤ 10 | 7.78 |  | 
4 | COc1ccc(C2C3CCCN3C3(C(=O)Nc4ccc([N+](=O)[O-])cc43)C2C(=O)c2ccc(Br)cc2)cc1 (stereo not shown) [23e] | > 100 | 111 to 113 | > 20 |  |  | 
5 | O=C(c1ccccc1)[C@@H]1[C@@H](c2ccccc2)[C@@H]2CCCN2[C@@]12C(=O)Nc1ccc(Br)cc12 [23f, (1′S,2′R,3S,7a’S)-2′-benzoyl-5-bromo-1′-phenyl-1′,2′,5′,6′,7′,7a’-hexahydrospiro[indolin-3,3′-pyrrolizin]-2-one] | > 100 | 175 to 177 | > 20 |  |  | 
6 | COc1ccc2c(c1)[C@]1(N[C@@H](Cc3ccccc3)[C@H](c3ccc(Cl)cc3)[C@H]1C(=O)c1ccc([N+](=O)[O-])cc1)C(=O)N2 [24a] | 17.3 |  | 2.43 |  | showed potential results; also recorded: potent LTopIB inhibitors; also recorded: able to inhibit the recombinant enzyme in vitro | 
7 | Cc1ccc(C(=O)[C@@H]2[C@@H](c3ccc(Br)cc3)[C@H](Cc3ccccc3)N[C@@]23C(=O)Nc2ccc([N+](=O)[O-])cc23)cc1 [24b] | 37.6 | 121 to 122 | ≤ 10 | 5.36 |  | 
8 | Cc1ccc2c(c1)[C@]1(N[C@@H](Cc3ccccc3)[C@H](c3ccc(Cl)cc3)[C@H]1C(=O)c1ccc([N+](=O)[O-])cc1)C(=O)N2 [24c] | > 100 | 135 to 137 | > 20 |  |  | 
9 | O=C(c1ccc(F)cc1)[C@@H]1[C@@H](c2ccc(Cl)cc2)[C@H](Cc2ccccc2)N[C@@]12C(=O)Nc1ccccc12 [24d] | > 100 | 104 to 106 | > 20 |  |  | 
10 | O=C(c1ccc([N+](=O)[O-])cc1)[C@@H]1[C@@H](c2ccc(Cl)cc2)[C@H](Cc2ccccc2)N[C@@]12C(=O)Nc1c(Br)cccc12 [24e] | 15.7 |  | 0.96 |  | showed potential results; also recorded: potent LTopIB inhibitors; also recorded: able to inhibit the recombinant enzyme in vitro | 
11 | Cc1ccc(C(=O)C2C(c3ccc(Br)cc3)C(Cc3ccccc3)NC23C(=O)Nc2ccc(I)cc23)cc1 (stereo not shown) [24f] | 19.6 |  | 1.62 |  | showed potential results; also recorded: potent LTopIB inhibitors; also recorded: able to inhibit the recombinant enzyme in vitro | 
12 | COc1ccc(C2C(Cc3cc4ccccc4[nH]3)NC3(C(=O)Nc4ccc(Br)cc43)C2C(=O)c2ccc(F)cc2)cc1 (stereo not shown) [25a] |  | 154 to 156 |  |  |  | 
13 | COc1ccc([C@H]2[C@H](Cc3cc4ccccc4[nH]3)N[C@@]3(C(=O)Nc4ccccc43)[C@@H]2C(=O)c2ccc(Br)cc2)cc1 [25b] | 89.1 | 118 to 120 | > 10 |  |  | 
14 | O=C(c1ccc(F)cc1)C1C(c2ccc(Cl)cc2)C(Cc2cc3ccccc3[nH]2)NC12C(=O)Nc1ccc(Br)cc12 (stereo not shown) [25c] |  | 138 to 140 |  |  |  | 
15 | COc1ccc(C2C(Cc3c[nH]c4ccccc34)NC3(C(=O)Nc4ccc(F)cc43)C2C(=O)c2ccc(C3CCCCC3)cc2)cc1 (stereo not shown) [25d] | 27.2 |  | 3.55 |  | showed potential results; also recorded: potent LTopIB inhibitors; also recorded: able to inhibit the recombinant enzyme in vitro | 
16 | COc1ccc(C2C(Cc3cc4ccccc4[nH]3)NC3(C(=O)Nc4ccc(C)cc43)C2C(=O)c2ccc(F)cc2)cc1 (stereo not shown) [25e] |  | 103 to 105 |  |  |  | 
17 | O=C(c1ccc(F)cc1)C1C(c2ccc(Cl)cc2)C(Cc2cc3ccccc3[nH]2)NC12C(=O)Nc1ccc([N+](=O)[O-])cc12 (stereo not shown) [25f] |  | 172 to 174 |  |  |  | 
18 | COc1ccc2c(c1)C1(NC(Cc3cc4ccccc4[nH]3)C(c3ccc(Cl)cc3)C1C(=O)c1ccc(F)cc1)C(=O)N2 (stereo not shown) [25g] |  | 142 to 145 |  |  |  | 
19 | C[C@@H]1[C@H](O)[C@@H](C)/C=C/C=C/C=C/C=C/C=C/C=C/C=C/[C@H](O[C@@H]2O[C@H](C)[C@@H](O)[C@H](N)[C@@H]2O)C[C@@H]2O[C@](O)(C[C@@H](O)C[C@@H](O)[C@H](O)CC[C@@H](O)C[C@@H](O)CC(=O)O[C@H]1C)C[C@H](O)[C@H]2C(=O)O [Amphotericin B, reference compound] |  |  | 0.06 |  |  | 
20 | CC[C@@]1(O)C(=O)OCc2c1cc1n(c2=O)Cc2cc3ccccc3nc2-1 [Camptothecin, reference compound] |  |  |  |  |  | 3
21 | CN(C)c1ccc(/C=N/N2C(=O)C(C#N)=CC23c2ccccc2NC2C=CC=CC23)cc1 (stereo not shown) [compound 18] |  | 172 to 174 |  |  |  | 
